Counter-ions that a name gives are not always drawn.
Experiments:
[1] = particle size distribution by laser diffractometry (Mastersizer 2000); type: physicochemical
Experimental: For Laser Diffractometry, 0.1 mL of milled suspensions were dispersed in 100 mL of demineralized water at a mixing speed of 1500 rpm with Mastersizer Hydro 2000 SM small volume dispersion unit. The particle size of the samples was measured at 25 ± 1 °C using a Mastersizer 2000 (Malvern Instruments Ltd., Malvern, UK). Laser diffraction measures the angular distribution of light scattered by the diluted sample and detects particles from 0.1 to 3000 μm. General purpose measurement with enhanced sensitivity mode was utilized, which was also useful for sample characterizations containing irregularly shaped particles. Every sample was measured three times individually, and the mean values were reported to track the changing of the particle size and span values (width of particle size distributions).

[2] = pKa and ionization state (species distribution) at the pH of the media; type: physicochemical
[3] = equilibrium solubility by the saturation shake-flask (SSF) method in FaSSIF/FeSSIF blank and full media; conditions: blank buffers, 37 °C
Experimental: The equilibrium solubility of the samples was determined by the SSF method. The concentrations for the blank buffers were available at the manufacturer. FaSSIF full and FeSSIF full buffers were prepared from instant SIF powder added to the blank buffers and could be used for 48 h. For FaSSIF, a full 0.224 g of SIF powder was dissolved in 100 mL of blank phosphate buffer (pH = 6.5). After 2 h, a slightly opalesque solution was formed and it meant that it was ready for the measurement. For FeSSIF, a full 1.12 g of SIF powder was dissolved in 100 mL of blank acetate buffer (pH = 5.0) and was ready to use. The samples were added in excess to the aqueous buffer solutions to produce a suspension. To measure the original samples and the micronized forms in the presence of the excipients, the same 1 to 1 mass ratio was used as in the case of nanonized samples: a physical mixture was prepared from the API and the PVA or PVPK-25.
The prepared suspensions were vigorously stirred for 6 h at a controlled 37.0 ± 0.1 °C temperature followed by a sedimentation period of 18 h. […] The concentration of the saturated solutions was determined by UV spectroscopy using a Jasco V-550 UV/VIS spectrophotometer. The aliquots taken out from solubility experiments were diluted if necessary with the buffer used for the given solubility measurement, and the absorbance was measured at the λmax. […]

[4] = ampholyte; cited from earlier work
[5] = original and micronized compounds before solubility measurement, upper size limit for 10% of particles
[6] = original and micronized compounds before solubility measurement, upper size limit for 50% of particles
[7] = original and micronized compounds before solubility measurement, upper size limit for 90% of particles
[8] = solid phase at end of solubility measurement, pH = 5.0
[9] = solid phase at end of solubility measurement, pH = 6.5
[10] = pH = 5.0, calculated from protonation microconstants

| Structure (SMILES) | d = 0.1 [1, 5] [µm] | d = 0.5 [1, 6] [µm] | d = 0.9 [1, 7] [µm] | d = 0.1 [1, 8] [µm] | d = 0.5 [1, 8] [µm] | d = 0.9 [1, 8] [µm] | d = 0.1 [1, 9] [µm] | d = 0.5 [1, 9] [µm] | d = 0.9 [1, 9] [µm] | H2A (non-ionized form) ([2]; pH = 5.0) [%] | HA− (monoanionic form) ([2]; pH = 5.0) [%] | solubility in pH = 5.0 medium compared with pH = 6.5 medium [3] | pKa1 [4] | pKa2 [4] | anionic form [2, 10] [%] | neutral form [2, 10] [%] | zwitterionic form [2, 10] [%] | anionic form ([2]; pH = 6.5, calculated from protonation microconstants) [%] | molecules protonated ([2]; pH = 5.0) [%] | molecule in deprotonated state ([2]; pH = 6.5) |
| --- | --- | --- | --- | --- | --- | --- | --- | --- | --- | --- | --- | --- | --- | --- | --- | --- | --- | --- | --- | --- |
| NS(=O)(=O)c1cc(C(=O)O)c(NCc2ccco2)cc1Cl [FUR original, furosemide] | 7.36 | 62.46 | 294.13 | 16.24 | 51.23 | 110.56 | 4.72 | 14.63 | 35.04 | 3.3 | 96.7 | – | – | – | – | – | – | – | – | – |
| O=C(O)c1cccnc1Nc1cccc(C(F)(F)F)c1 [NIF original, Niflumic acid] | 71.45 | 183.25 | 579.83 | 56.21 | 151.25 | 488.95 | 19.07 | 58.55 | 128.24 | – | – | approximately ten times lower | 2.26 | 4.44 | 78.2 | 1.2 | 20.6 | 99.1 | – | – |
| COc1ccc(Cc2nccc3cc(OC)c(OC)cc23)cc1OC [PAP original, papaverine hydrochloride] | 153.97 | 488.62 | 887.93 | 4.60 | 49.42 | 189.96 | 7.96 | 33.39 | 98.40 | – | – | – | – | – | – | – | – | – | 95.8 | approximately 50% |

Source: PMC9865396, “The Effect of the Particle Size Reduction on the Biorelevant Solubility and Dissolution of Poorly Soluble Drugs with Different Acid-Base Character” (Pharmaceutics, 2023)
